Test results as given in paper PMC8305768, “Design, Synthesis and Antiparasitic Evaluation of Click Phospholipids” (Molecules, 2021).
Counter-ions that a name gives are not always drawn.

How the values were obtained:
[1] = Early ADMET profiling panel, overall; details: 10 μM; except for toxicity against THP1 macrophages
Source text: Early ADMET profiling: The early ADMET profiling of the new derivatives involved a group of assays widely used in drug development as part of the preclinical in vitro toxicity studies. In particular our panel included hERG inhibition, five cytochromes P450 (CYP1A2, CYP2C9, CYP2C19, CYP2D6 and CYP3A4), two cell-lines (A549, epithelial human lung adenocarcinoma, WI38 and foetal lung fibroblasts), Aurora B kinase and mitochondrial toxicity, in addition to the parasite relevant toxicity against THP1 macrophages. The compounds were tested at 10 μΜ, whilst the miltefosine control was tested at 10 μΜ or 1 μM. The toxicity of the new click phospholipids is depicted in Figure 3 in a traffic light format (from red through yellow to green for decreasing ADMET liabilities).
Cytotoxicity assay: A549 cells and WI-38 cells were grown on surface-modified T175 cell culture flasks in Dulbecco’s modified Eagle medium with 10% foetal calf serum (FCS), streptomycin (100 μg/mL) and 100 U/mL penicillin G. At about 80% confluency, cells were washed, trypsinized, resuspended and counted in RPMI-1640 medium before seeding (in triplicate) into white 384-well microtiter plates (20 μL) at 500 cells/well and incubated at 37 °C in the presence of 5% CO2 for 24 h. A total of 20 μL/well of CellTiter-Glo (CTG) reagent (Promega Corp., Madison, WI, USA) was added to each well, and plates were read using an EnVision Multilabel 2103 Reader after a 10-min incubation in the dark. Dose–response assays for compounds made use of 11-point curves. Each test compound (200 nL of 10 mM top concentration in 100% v/v DMSO) was added to cells seeded in polystyrene 384-well cell culture microtiter plates using the Echo 550 Liquid Handler and read after 24 h of incubation at 37 °C in the presence of 5% CO2 using CTG as described above. The compounds/positive control (paclitaxel with final concentration of 10 μM and 1% v/v DMSO) and no compound (final 1% v/v DMSO) were added into the 384-well plates (200 nL/well; 1% v/v DMSO) using the Echo 550 Liquid Handler. The raw luminescence signal of each sample was converted into the percentage of cell growth.
Cytochrome (CYP) P450 inhibition assay: These assays made use of microsomal preparations of CYP450 (1A2, 2C9, 2C19, 2D6 and 3A4) from baculovirus-infected insect cells (Corning Inc., Corning, NY, USA) and cytochrome c reductase (and cytochrome b5 for CYP450 3A4). For detection of CYP450 activity, the luminescence-based P450-Glo (Promega Corp., Madison, WI, USA) assay system was used that contained a luminogenic CYP450 substrate, lyophilized luciferin detection reagent and reconstitution buffer. The substrates were luciferin derivatives of CYP450-specific substrates that produce (4S)-4,5-dihydro-2-(6-hydroxybenzothiazolyl)-4-thiazolecarboxylic acid (D-luciferin) after cleavage by CYP450 (CYP450 3A4, luciferin-IPA; CYP450 2C19, luciferin-H EGE; CYP450 2C9, luciferin-H; CYP450 2D6, luciferin-ME EGE; CYP450 1A2, luciferin-1A2). CYP450 reactions were initiated by addition of the NADPH regeneration system to the enzyme–substrate mixture with the luciferin detection reagent stopping the reaction and the D-luciferin being converted to oxyluciferin under the production of light being proportional to the CYP450 activity. The CYP450 assays were performed using the Tecan Fluent liquid-handling automation platform (Tecan Group Ltd., Mannedorf, Switzerland) in the 384-well assay format. Compounds were added into an empty 384-well plate (100 nL/well in 1% v/v DMSO) using the Echo 550 Liquid Handler followed by the addition of 5 μL/well of the CYP450/substrate mixture and incubation for 30 min at 37 °C, after which the reaction was initiated by the addition of the 5 μL/well NADPH regeneration system. […]

hERG = target: T1, hERG (Homo sapiens, UniProt Q12809); assay: hERG cardiotoxicity assay (Predictor hERG fluorescence polarization); type: binding; details: compounds 10 μM; miltefosine 10 μM or 1 μM
T1 construct: purchased Thermo Fischer Scientific
T1 sequence (Q12809 whole entry): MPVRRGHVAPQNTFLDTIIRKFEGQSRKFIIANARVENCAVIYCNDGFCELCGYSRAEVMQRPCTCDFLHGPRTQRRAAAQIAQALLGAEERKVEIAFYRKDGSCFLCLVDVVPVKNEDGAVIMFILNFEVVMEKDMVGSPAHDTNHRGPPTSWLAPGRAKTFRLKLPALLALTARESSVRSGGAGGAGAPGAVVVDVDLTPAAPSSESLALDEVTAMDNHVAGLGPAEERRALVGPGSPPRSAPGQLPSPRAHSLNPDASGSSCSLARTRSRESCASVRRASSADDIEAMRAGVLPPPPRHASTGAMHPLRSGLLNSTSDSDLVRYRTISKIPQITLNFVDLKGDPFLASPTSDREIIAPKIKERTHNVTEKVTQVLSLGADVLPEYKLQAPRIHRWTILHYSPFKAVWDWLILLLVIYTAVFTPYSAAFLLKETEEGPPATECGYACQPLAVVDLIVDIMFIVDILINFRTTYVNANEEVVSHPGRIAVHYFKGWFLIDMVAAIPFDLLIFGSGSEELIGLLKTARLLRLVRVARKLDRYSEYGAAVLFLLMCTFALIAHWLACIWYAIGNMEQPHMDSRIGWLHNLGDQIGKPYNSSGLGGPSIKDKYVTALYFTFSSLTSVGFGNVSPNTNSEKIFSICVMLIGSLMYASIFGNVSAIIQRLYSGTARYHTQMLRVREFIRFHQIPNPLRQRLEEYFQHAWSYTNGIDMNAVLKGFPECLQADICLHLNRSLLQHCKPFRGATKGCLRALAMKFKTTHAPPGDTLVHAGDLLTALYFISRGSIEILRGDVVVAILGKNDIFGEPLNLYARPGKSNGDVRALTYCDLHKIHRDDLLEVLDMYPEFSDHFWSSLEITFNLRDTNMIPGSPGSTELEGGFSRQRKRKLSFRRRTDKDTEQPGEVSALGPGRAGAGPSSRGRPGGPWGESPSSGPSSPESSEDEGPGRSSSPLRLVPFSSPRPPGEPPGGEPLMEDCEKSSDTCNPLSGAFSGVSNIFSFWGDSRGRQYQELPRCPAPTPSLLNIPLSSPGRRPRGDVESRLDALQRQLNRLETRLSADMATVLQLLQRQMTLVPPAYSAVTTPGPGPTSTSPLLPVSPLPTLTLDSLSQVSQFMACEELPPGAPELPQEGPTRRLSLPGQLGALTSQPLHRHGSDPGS
Procedure: hERG cardiotoxicity assay: The Predictor® hERG fluorescence polarization assay (Thermo Fischer Scientific, Waltham, MA, USA) was used to test compounds for potential cardiotoxicity. To each well of the assay plate, 100 nL of the test/control compound was added followed by addition of 5 μL homogenized membrane solution (undiluted) and 5 μL of tracer (1 nM final concentration in the assay). The plates were incubated for 2 h at 25 °C in a humidity controlled incubator, and the fluorescence polarization was measured using an EnVision Multilabel 2103 Reader (PerkinElmer, Waltham, MA. USA). The NCs (0% inhibition) and positive controls with E-4031, a blocker of hERG-type potassium channels (yielding 100% inhibition), were used to normalize the raw data.
Data analysis: The screening data were obtained in triplicate and analysed using ActivityBase (IDBS, Guildford, UK), and outlier elimination in the control wells was performed using the 3-sigma method. Unless stated, dose–response experiments were performed in the 11-point format with the IC50 value, Hill slope, minimum signal and maximum signal for each dose–response curve obtained using a four-parameter logistic fit in the XE module of ActivityBase (IDBS).

| Compound | ADMET liabilities (overall panel) [1] | % inhibition ± SD at 10 μΜ hERG (hERG) |
| --- | --- | --- |
| CCCCCc1cn(CCCCCCCCCCCOP(=O)([O-])OCC[N+](C)(C)C)nn1 [Compound 25, 11-(4-pentyl-1H-1,2,3-triazol-1-yl)undecyl (2-(trimethylammonio)ethyl) phosphate inner salt] | no liabilities | –7.70% |
| C[N+](C)(C)CCOP(=O)([O-])OCCCCCCCCCCCn1cc(CC2CCCC2)nn1 [Compound 28, 11-(4-(cyclopentylmethyl)-1H-1,2,3-triazol-1-yl)undecyl (2-(trimethylammo nio)ethyl) phosphate inner salt] | no liabilities | –3.64% |
| C[N+](C)(C)CCOP(=O)([O-])OCCCCCCCCCCCn1cc(CC2CCCCC2)nn1 [Compound 29, 11-(4-(cyclohexylmethyl)-1H-1,2,3-triazol-1-yl)undecyl (2-(trimethylammonio)ethyl) phosphate inner salt] | no liabilities | –4.90% |
| C[N+](C)(C)CCOP(=O)([O-])OCCCCCn1cc(CCCCCCCCNC(=O)OCc2ccccc2)nn1 [Compound 31, 5-(4-(8-(((benzyloxy)carbonyl)amino)octyl)-1H-1,2,3-triazol-1-yl)pentyl (2-(trimethylammonio)ethyl) phosphate inner salt] | no liabilities | –6.43% |
| C[N+](C)(C)CCCOP(=O)([O-])OCCCCCCCCCCCn1cc(CC2CCCCC2)nn1 [Compound 33, 11-(4-(cyclohexylmethyl)-1H-1,2,3-triazol-1-yl)undecyl (3-(trimethylammonio)propyl) phosphate inner salt] | no liabilities | 16.60 ± 2.64% |
| C[N+](C)(C)CCOP(=O)([O-])OCCCCCCCCCCCn1cc(CCCCCCCCC(=O)O)nn1 [Compound 34, 11-(4-(8-carboxyoctyl)-1H-1,2,3-triazol-1-yl)undecyl (2-(trimethylammonio)ethyl) phosphate inner salt] | no liabilities | – |
| C[N+](C)(C)CCOP(=O)([O-])OCCCCCn1cc(CCCCCCCCN)nn1 [Compound 35, 5-(4-(8-aminooctyl)-1H-1,2,3-triazol-1-yl)pentyl (2-(trimethylammonio)ethyl) phosphate inner salt] | no liabilities | 0.10% |
| CCCCCCCCc1noc(CCCCCOP(=O)([O-])OCC[N+](C)(C)C)n1 [Compound 53, 5-(3-octyl-1,2,4-oxadiazol-5-yl)pentyl (2-(trimethylammonio)ethyl) phosphate inner salt] | no liabilities | 8.95% |
| CCCCCCCCc1noc(CCCCCCCCCCOP(=O)([O-])OCC[N+](C)(C)C)n1 [Compound 54, 10-(3-octyl-1,2,4-oxadiazol-5-yl)decyl (2-(trimethylammonio)ethyl) phosphate inner salt] | – | 17.93% |
| CCCCCCCc1nnc(CCCCCCCCCCOP(=O)([O-])OCC[N+](C)(C)C)o1 [Compound 65, 10-(5-heptyl-1,3,4-oxadiazol-2-yl)decyl (2-(trimethylammonio)ethyl) phosphate inner salt] | no liabilities | 8.64% |
| CCCCCCCCCCCc1nnc(CCCCCCCCCCOP(=O)([O-])OCC[N+](C)(C)C)o1 [Compound 66, 2-(trimethylammonio)ethyl (10-(5-undecyl-1,3,4-oxadiazol-2-yl)decyl) phosphate inner salt] | – | 22.98% |
| CCCCCCCCCCCCCCCCOP(=O)([O-])OCC[N+](C)(C)C [Miltefosine, hexadecylphosphocholine, reference compound] | – | –16.92% |
